Here are results for five compounds from US5840752A, “Reduction of hair growth” (priority 1996, dated 1998).

The structures appear in SMILES notation.

The subject of one test is HMG CoA reductase. As to the kind of experiment: HMGCoA reductase assay in extracts of hair follicles from hamster flank organ. It is filed as biochemical. The conditions noted are these: tested at 14 μM, 1 hour incubation.
Test [1] has as its system hair growth of hamster flank organs. As to the kind of experiment: Golden Syrian hamster assay (flank organ hair mass). It is filed as in vivo. The conditions noted are these: topical, thirteen applications; for Hair Mass (mg) ± SEM, Treated: 10 μl once a day; for % Reduction (of hair growth): vs vehicle treated side. The source says:
Male intact Golden Syrian hamsters are considered acceptable models for human beard hair growth in that they display oval shaped flank organs, one on each side, each about 8 mm. in major diameter, which grow thick black and coarse hair similar to human beard hair. These organs produce hair in response to androgens in the hamster. To evaluate the effectiveness of a composition including an inhibitor of a cholesterol synthetic pathway enzyme, the flank organs of each of a group of hamsters are depilated by applying a thioglycolate based chemical depilatory (Surgex) and/or shaved. To one organ of each animal 10 μl. of vehicle alone once a day is applied, while to the other organ of each animal an equal amount of vehicle containing an inhibitor of a cholesterol synthetic pathway enzyme is applied. After thirteen applications (one application per day for five days a week), the flank organs are shaved and the amount of recovered hair (hair mass) from each is weighed. Percent-reduction of hair growth is calculated by subtracting the hair mass (mg) value of the test compound treated side from the hair mass value of the vehicle treated side; the delta value obtained is then divided by the hair mass value of the vehicle treated side, and the resultant number is multiplied by 100.
The above-described assay will be referred to herein as the "Golden Syrian hamster" assay.

Where [2] appears, read: dose 10%, Vehicle A (40% acetone, 40% dipropylene glycol, 20% dimethyl sulfoxide).
[3] abbreviates: dose 10%, Vehicle C (85% dimethyl sulfoxide, 10% benzyl alcohol, 5% NMP).
[4] abbreviates: dose 5%, Vehicle C (85% dimethyl sulfoxide, 10% benzyl alcohol, 5% NMP).
Setting [5] is: dose 5%, Vehicle B (100% dimethyl sulfoxide).

Regarding `CCC(C)(C)C(=O)O[C@H]1C[C@@H](C)C=C2C=C[C@H](C)[C@H](CC[C@@H]3C[C@@H](O)CC(=O)O3)[C@H]21` (relative stereo) [Simivistatin, 1S-[1α,3α,7β,8β(2S*,4S*),8aβ]]-1,2,3,7,8,8a-hexahydro-3,7-dimethyl-8-[2-tetrahydro-4-hydroxy-6-oxo-2H-pyran-2-yl)ethyl]-1-napthalenyl-2,2-dimethyl-butanoic acid], in the test with HMG CoA reductase, the “inhibition of HMG CoA reductase activity” value is recorded as 100%. Besides, in test [1] (setting [2]), the “Hair Mass (mg) ± SEM, Treated” value is on record as 0.60 ± 0.11 mg and the “% Reduction (of hair growth)” value is on record as 61 ± 7%.
Turning to `CC(C)CCC[C@@H](C)[C@H]1CC[C@H]2[C@@H]3C(=O)C=C4C[C@@H](O)CC[C@]4(C)[C@H]3CC[C@]12C` [7-Ketocholesterol, 5-cholesten-3β-Ol-7-one], in test [1] (setting [3]), the “Hair Mass (mg) ± SEM, Treated” value stood at 1.01 ± 0.1 mg and the “% Reduction (of hair growth)” value amounted to 54 ± 7%.
Regarding `C[C@H](CCCC(C)(C)O)[C@H]1CC[C@H]2[C@@H]3CC=C4C[C@@H](O)CC[C@]4(C)[C@H]3CC[C@]12C` [25-Hydroxycholesterol, 25-hydroxycholesterol], in test [1] (setting [4]), the “Hair Mass (mg) ± SEM, Treated” value is on record as 1.04 ± 0.10 mg and the “% Reduction (of hair growth)” value turned out to be 17 ± 9%.
Regarding `CC[C@H](C)C(=O)O[C@H]1C[C@@H](C)C=C2C=C[C@H](C)[C@H](CC[C@@H]3C[C@@H](O)CC(=O)O3)[C@H]21` [Lovastatin, 1S-[1S-[1α(R*),3α,7β,8β(2S*,4S*),8αβ]]-1,2,3,7,8,8a-hexahydro-3,7-dimethyl-8-[2-(tetrahydro-4-hydroxy-6-oxo-2H-pyran-2-yl)ethyl]-1-naphthalenyl 2-methylbutanoate], in test [1] (setting [2]), the “Hair Mass (mg) ± SEM, Treated” value is given as 0.81 ± 0.13 mg and the “% Reduction (of hair growth)” value is reported as 63±4%.
For the compound `CC[C@H](C)C(=O)O[C@H]1CCC=C2C=C[C@H](C)[C@H](CC[C@@H]3C[C@@H](O)CC(=O)O3)[C@H]21` [Mevastatin, mevastatin], in test [1] (setting [5]), the “Hair Mass (mg) ± SEM, Treated” value worked out at 1.09 ± 0.07 mg and the “% Reduction (of hair growth)” value is reported as 19 ± 7%.
